Experiment [1] deals with Saccharomyces cerevisiae FHCRC 50514. The experiment is described as follows: Disk diffusion assay, antifungal bioactivity. The format is cell-based. The conditions noted are these: 37° C., 24 hours. Here is the method:
Antifungal bioactivity of Compound 1 (0506), in comparison to Amphotericin B, against Saccharomyces cerevisiae FHCRC 50514 was determined using a disk diffusion assay. Such an assay is commonly used to reveal activity of antifungal drugs against fungi (Wong G K, Griffith S, Kojima I and Demain A L, J. Antibiotics, 51(5): 487-491, 1998).
Inoculum (100 μL) was added to 100 mL of RPMI agar (kept at 55° C.) to give a final suspension of about 1×10^5 CFU/mL, and poured into 150 mm Petri dishes. Plates were used immediately upon setting of the agar.
Compound 1 (0506) was diluted in DMSO to a concentration of 3.2 mg/mL. A 20 μL sample (64 μg) was deposited on the agar surface of prepared plates. Amphotericin solution in DMSO (5 mg/mL; 10 μL; 50 μg) was also deposited, in a separate location, on the agar surface. A negative control (10 μL of stock solution) was also deposited in a separate location on the surface of the agar. The plates were incubated at 37° C. for 24 hours.

The subject of experiment [2] is Saccharomyces cerevisiae Δpdr1/pdr3/erg6 (FHCRC 50514). The experiment is described as follows: Broth dilution antifungal susceptibility (NCCLS M27A), MIC. The conditions noted are these: 48 h, read-out: minimum inhibitory concentration (MIC).
The test system of experiment [3] is Candida indicators. The experiment is described as follows: Bioactivity screen of HPLC/MS fractions of organism 100 extracts. The format is cell-based. The following applies: compound of mass 1113 Da from organism 100 extracts. The method, then:
An extract containing the putative polyene was obtained from organism 100 using a metabolomic approach to identify conditions under which the product of locus 100C was expressed. This approach obtains analytical measurement of all low molecular weight metabolites in a given organism at a specific time when grown under specific culture conditions. Organism 100 was grown in 48 different media, namely AA, AB, AC, BA, CA, CB, CI, DA, DY, DZ, EA, ES, ET, FA, GA, IB, JA, KA, KE, LA, MA, MC, MU, NA, NE, NF, NG, OA, PA, PB, QB, RA, RB, RC, RM, SF, SP, TA, VA, VB, WA, WS, XA, YA, ZA. Metabolites were extracted from whole cell cultures by adding of an equal volume of methanol. After removal of solid debris, the extract was concentrated and injected into an HPLC/MS system in which the metabolites were analyzed to obtain UV and mass data and purified fractions are collected in 96-well plates and assayed for multiple activities including antibiotic activity against gram-positive and gram-negative bacteria, and fungi.
Finally, the extracts generated by growth of organism 100 under each of the 48 media were analyzed for metabolites having physical, chemical and biological characteristics of polyenes. […]

In experiment [4] the target is T1, Adenosine A3 Receptor (Homo sapiens, UniProt P0DMS8).
T1 sequence (P0DMS8 1-318): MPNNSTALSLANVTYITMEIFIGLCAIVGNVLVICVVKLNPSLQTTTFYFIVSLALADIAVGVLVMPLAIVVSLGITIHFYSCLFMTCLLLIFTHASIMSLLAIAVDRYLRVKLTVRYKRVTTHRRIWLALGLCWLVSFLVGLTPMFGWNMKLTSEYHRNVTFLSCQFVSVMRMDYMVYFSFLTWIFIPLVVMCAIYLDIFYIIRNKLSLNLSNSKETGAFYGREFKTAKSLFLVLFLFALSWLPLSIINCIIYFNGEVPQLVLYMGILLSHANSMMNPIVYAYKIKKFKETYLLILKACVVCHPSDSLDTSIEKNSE
The conditions noted are these: radioligand, historical value; cited from earlier work.

For experiment [5], the target named is T2, Angiotensin Converting Enzyme (Oryctolagus cuniculus, UniProt P12822).
T2 construct: ACE: Source: rabbit lung; from tissue; host or cells: rabbit lung
T2 sequence (P12822 34-1310): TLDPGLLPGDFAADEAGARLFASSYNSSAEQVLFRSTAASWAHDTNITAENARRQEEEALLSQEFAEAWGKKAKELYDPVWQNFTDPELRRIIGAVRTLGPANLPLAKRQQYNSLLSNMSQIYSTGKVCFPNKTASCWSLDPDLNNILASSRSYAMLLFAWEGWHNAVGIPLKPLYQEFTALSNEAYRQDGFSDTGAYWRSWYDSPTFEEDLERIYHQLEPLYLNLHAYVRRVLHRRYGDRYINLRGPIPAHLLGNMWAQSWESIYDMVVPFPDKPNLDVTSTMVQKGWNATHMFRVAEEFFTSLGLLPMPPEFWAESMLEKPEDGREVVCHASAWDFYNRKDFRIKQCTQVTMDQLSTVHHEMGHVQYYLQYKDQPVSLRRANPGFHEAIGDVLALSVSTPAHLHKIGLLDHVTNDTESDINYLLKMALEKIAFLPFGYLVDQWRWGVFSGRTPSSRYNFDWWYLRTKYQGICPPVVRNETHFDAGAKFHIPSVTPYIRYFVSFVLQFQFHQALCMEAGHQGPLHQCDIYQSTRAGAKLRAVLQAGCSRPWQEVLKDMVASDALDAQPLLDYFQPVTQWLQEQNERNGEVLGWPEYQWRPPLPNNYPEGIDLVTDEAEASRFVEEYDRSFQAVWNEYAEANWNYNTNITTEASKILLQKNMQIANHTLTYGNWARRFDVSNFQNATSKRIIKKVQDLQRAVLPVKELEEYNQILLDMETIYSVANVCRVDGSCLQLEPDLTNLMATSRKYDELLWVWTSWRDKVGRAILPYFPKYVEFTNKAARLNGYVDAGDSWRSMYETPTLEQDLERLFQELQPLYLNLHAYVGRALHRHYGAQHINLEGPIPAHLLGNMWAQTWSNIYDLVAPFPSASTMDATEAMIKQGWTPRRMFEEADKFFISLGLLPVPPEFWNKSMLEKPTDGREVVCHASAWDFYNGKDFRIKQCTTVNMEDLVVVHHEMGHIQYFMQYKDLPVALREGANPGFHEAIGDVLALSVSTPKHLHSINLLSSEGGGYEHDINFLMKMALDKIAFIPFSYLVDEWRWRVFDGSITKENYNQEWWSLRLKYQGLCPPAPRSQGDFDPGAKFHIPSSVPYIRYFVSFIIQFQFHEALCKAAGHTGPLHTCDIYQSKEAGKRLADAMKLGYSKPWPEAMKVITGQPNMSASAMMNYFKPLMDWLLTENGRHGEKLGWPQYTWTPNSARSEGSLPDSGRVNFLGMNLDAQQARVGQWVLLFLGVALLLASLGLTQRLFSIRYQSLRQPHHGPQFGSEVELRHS
The experiment is described as follows: ACE enzyme inhibition assay (spectrometric quantitation of FAPGG). The format is biochemical. The following applies: 10 μM in 1% DMSO; rabbit lung enzyme.

The target in experiment [6] is T3, Protein Serine/Threonine Kinase MEK1 (Oryctolagus cuniculus, UniProt P29678).
T3 construct: made in house; host or cells: E. coli
As to the kind of experiment: MEK1 enzyme inhibition assay (Elisa quantitation of MBP-P). It is filed as biochemical. The following applies: 10 μM in 1% DMSO; rabbit recombinant E. coli.

The target in experiment [7] is T1, Adenosine A3 Receptor. The experiment is described as follows: Adenosine A3 radioligand binding assay. The following applies: 10 μM in 1% DMSO; human recombinant CHO-K1 cells; negative value = stimulation of binding. On the set-up: expressed in transfected cells; host or cells: CHO-K1 cells.

SMILES strings stand for the structures. Values after ≈ are worked out from the molar mass of the structure shown.

T3 sequence (P29678 whole entry): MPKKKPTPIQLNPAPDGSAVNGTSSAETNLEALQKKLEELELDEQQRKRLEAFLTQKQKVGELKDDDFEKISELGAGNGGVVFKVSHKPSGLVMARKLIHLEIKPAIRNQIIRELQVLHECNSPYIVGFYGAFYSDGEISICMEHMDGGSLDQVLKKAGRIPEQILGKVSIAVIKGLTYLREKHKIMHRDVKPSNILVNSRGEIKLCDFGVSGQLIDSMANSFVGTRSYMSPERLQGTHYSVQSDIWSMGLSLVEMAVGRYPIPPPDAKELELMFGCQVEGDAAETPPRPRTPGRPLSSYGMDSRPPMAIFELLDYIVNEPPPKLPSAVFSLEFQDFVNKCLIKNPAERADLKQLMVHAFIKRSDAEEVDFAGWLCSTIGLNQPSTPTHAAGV

For `C[C@@H]1[C@H](O)[C@@H](C)/C=C/C=C/C=C/C=C/C=C/C=C/C=C/[C@H](O[C@@H]2O[C@H](C)[C@@H](O)[C@H](N)[C@@H]2O)C[C@@H]2O[C@](O)(C[C@@H](O)C[C@@H](O)[C@H](O)CC[C@@H](O)C[C@@H](O)CC(=O)O[C@H]1C)C[C@H](O)[C@H]2C(=O)O` [Amphotericin B, reference compound], in experiment [1] (at 50 μg deposited on agar), the “zone of inhibition (diameter)” value was 23.9 mm. Turning to `OC(Cn1cncn1)(Cn1cncn1)c1ccc(F)cc1F` [Fluconazole, reference compound], in experiment [2], the MIC is 0.25 to 0.5 mg/L (≈ 0.816 to 1.63 µM). As to `CC1/C=C/C=C/C=C/C=C/C=C/C=C/C=C/C(OC2O[C@H](C)C(O)[C@H](N)C2O)CC2OC(O)(CC(O)CC(O)CC(O)CC(O)C[C@H](O)CC(O)CC(=O)OC1C(C)CCC(O)CC(=O)c1ccc(N)cc1)CC(O)C2C(=O)O` (stereo partly drawn) [ayfactin], the antifungal activity entry in experiment [3] is “antifungal activity”.

`COc1cc2nc(N3CCN(C(=O)c4ccco4)CC3)nc(N)c2cc1OC` [[H3] Prazosin, Prazosin]: the Kd in experiment [4] is 0.29 nM.

Take `CNC(CCCN(O)C(=O)C(CO)NC(=O)C(N)CCCN(C=O)C(=N)N)C(=O)NC(CO)C(=O)NC(CO)C(=O)NC(CCC(N)=O)C(=O)O` (stereo not drawn) [Compound 1 (0506)]: in experiment [1] (at 64 μg deposited on agar), the “zone of inhibition (diameter)” value amounted to 36.4 mm. Also, the figures for the inhibition at 10 µM in experiment [5], in experiment [6] and in experiment [7] were 50%, 63% and -101%, respectively. As for `C/C=C(\C)C(O)C(C)/C=C/C=C(\C)CCC(O)CC1=C(C)C(=O)C(C)(O)O1` (stereo not drawn) [Compound 2], in experiment [2], the MIC worked out at 64 mg/L (≈ 169 µM).

A word on the Kd: it is the free concentration of one partner at which half of the binding sites on the other are occupied at equilibrium, for simple one-to-one binding. In general, inhibition refers to the drop in the measured response relative to a control, in per cent.

The record behind these values is patent US20070061084A1, “Method, system, and knowledge repository for identifying a secondary metabolite from a microorganism” (Ecopia BioSciences, Inc., priority 2002, published 2007).
